Patent US7504420B2, “Compounds which inhibit beta-secretase activity and methods of use” (CoMentis, Inc., priority 2005, dated 2009)

Target: memapsin 2 (Homo sapiens, UniProt P56817)
Test: Inhibition of memapsin 2 catalytic activity (Ki)
Assay type: biochemical
Conditions: memapsin 2, pH 4, 37° C.; read-out: M2K
Experimental: Potency of compounds were determined by measurement of their inhibition of memapsin 2 catalytic activity toward a fluorescent substrate. […] Briefly, assays were performed at pH 4, 37° C., by pre-incubation of memapsin 2 enzyme with compound for 20 minutes. Activity measure was initiated by addition of a fluorogenic substrate FS-2 (Bachem Americas, Torrance, Calif.). Fluorescent signal increase over time was measured as a rate of hydrolysis of the peptide substrate. […]

Chain of memapsin 2 (P56817 46-501): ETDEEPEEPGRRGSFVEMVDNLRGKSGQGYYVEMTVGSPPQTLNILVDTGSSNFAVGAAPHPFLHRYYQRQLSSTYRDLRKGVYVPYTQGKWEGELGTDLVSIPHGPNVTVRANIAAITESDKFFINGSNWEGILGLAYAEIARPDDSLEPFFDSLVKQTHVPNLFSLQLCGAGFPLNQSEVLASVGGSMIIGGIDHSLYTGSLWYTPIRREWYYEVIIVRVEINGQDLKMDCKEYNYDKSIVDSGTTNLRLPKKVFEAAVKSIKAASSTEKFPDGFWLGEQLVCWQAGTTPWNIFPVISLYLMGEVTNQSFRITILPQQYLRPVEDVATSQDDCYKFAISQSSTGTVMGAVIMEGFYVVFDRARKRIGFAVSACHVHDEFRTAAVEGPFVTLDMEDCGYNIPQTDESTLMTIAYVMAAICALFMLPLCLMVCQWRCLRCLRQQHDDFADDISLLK

Row | Compound | Ki
1 | COc1cccc(CNCC(O)C(Cc2ccccc2)NC(=O)c2cc(C(=O)NC(C)c3cccc(F)c3)cc(N(C)S(C)(=O)=O)c2)c1 (stereo not drawn) [N1-(1-(3-fluorophenyl)ethyl)-N3-(3-hydroxy-4-(3-methoxybenzylamino)-1-phenylbutan-2-yl)-5-(N-methylmethylsulfonamido)isophthalamide] | < 300 nM
2 | COc1cccc(CNCC(O)C(Cc2ccccc2)NC(=O)c2cc(C(=O)NC(C)C3COC4OCCC43)cc(N(C)S(C)(=O)=O)c2)c1 (stereo not drawn) [N1-(1-(hexahydrofuro[2,3-b]furan-3-yl)ethyl)-N3-(3-hydroxy-4-(3-methoxybenzylamino)-1-phenylbutan-2-yl)-5-(N-methylmethylsulfonamido)isophthalamide] | > 501 nM
3 | CC(NC(=O)c1cc(C(=O)NC(Cc2ccccc2)C(O)CNCc2cn(COCC[Si](C)(C)C)cn2)cc(N(C)S(C)(=O)=O)c1)c1ccccc1 (stereo not drawn) [N1-(3-hydroxy-1-phenyl-4-((1-((2-(trimethylsilyl)ethoxy)methyl)-1H-imidazol-4-yl)methylamino)butan-2-yl)-5-(N-methylmethylsulfonamido)-N3-(1-phenylethyl)isophthalamide] | < 300 nM
4 | COc1cccc(C(C)NCC(O)C(Cc2ccccc2)NC(=O)c2cccc(C(=O)N(C)Cc3nc(C)cs3)c2)c1 (stereo not drawn) [N1-(3-hydroxy-4-(1-(3-methoxyphenyl)ethylamino)-1-phenylbutan-2-yl)-N3-methyl-N3-((4-methylthiazol-2-yl)methyl)isophthalamide] | < 300 nM
5 | Cc1csc(CN(C)C(=O)c2cccc(C(=O)NC(Cc3ccccc3)C(O)CNCc3cccc(OCC(C)C)c3)c2)n1 (stereo not drawn) [N1-(3-hydroxy-4-(3-isobutoxybenzylamino)-1-phenylbutan-2-yl)-N3-methyl-N3-((4-methylthiazol-2-yl)methyl)isophthalamide] | < 300 nM
6 | COc1cccc(CNCC(O)C(Cc2ccccc2)NC(=O)c2cccc(C(=O)N(Cc3nc(C)cs3)CC(C)C)c2)c1 (stereo not drawn) [N1-(3-hydroxy-4-(3-methoxybenzylamino)-1-phenylbutan-2-yl)-N3-isobutyl-N3-((4-methylthiazol-2-yl)methyl)isophthalamide] | < 300 nM
7 | COc1cccc(CNCC(O)C(Cc2ccccc2)NC(=O)c2cccc(C(=O)N(C)Cc3coc(C)n3)c2)c1 (stereo not drawn) [N1-(3-hydroxy-4-(3-methoxybenzylamino)-1-phenylbutan-2-yl)-N3-methyl-N3-((2-methyloxazol-4-yl)methyl)isophthalamide] | < 300 nM
8 | COc1cccc(CNCC(O)C(Cc2ccccc2)NC(=O)c2cccc(C(=O)N(C)Cc3cnccn3)c2)c1 (stereo not drawn) [N1-(3-hydroxy-4-(3-methoxybenzylamino)-1-phenylbutan-2-yl)-N3-methyl-N3-(pyrazin-2-ylmethyl)isophthalamide] | > 501 nM
9 | Cc1ccc(CNCC(O)C(Cc2ccccc2)NC(=O)c2cccc(C(=O)N(C)Cc3nc(C)cs3)c2)cc1 (stereo not drawn) [N1-(3-hydroxy-4-(4-methylbenzylamino)-1-phenylbutan-2-yl)-N3-methyl-N3-((4-methylthiazol-2-yl)methyl)isophthalamide] | > 501 nM
10 | CC(NC(=O)c1cc(C(=O)NC(Cc2ccccc2)C(O)CNCC2CCCN2C(C)C)cc(N(C)S(C)(=O)=O)c1)c1ccccc1 (stereo not drawn) [N1-(3-hydroxy-4-((1-isopropylpyrrolidin-2-yl)methylamino)-1-phenylbutan-2-yl)-5-(N-methylmethylsulfonamido)-N3-(1-phenylethyl)isophthalamide] | > 501 nM
11 | Cc1cc(CNCC(O)C(Cc2ccccc2)NC(=O)c2cc(C(=O)NC(C)c3ccccc3)cc(N(C)S(C)(=O)=O)c2)[nH]n1 (stereo not drawn) [N1-(3-hydroxy-4-((3-methyl-1H-pyrazol-5-yl)methylamino)-1-phenylbutan-2-yl)-5-(N-methylmethylsulfonamido)-N3-(1-phenylethyl)isophthalamide] | > 501 nM
12 | CCOc1cccc(CNCC(O)C(Cc2ccccc2)NC(=O)c2cccc(C(=O)N(C)Cc3nc(C)cs3)c2)c1 (stereo not drawn) [N1-(4-(3-ethoxybenzylamino)-3-hydroxy-1-phenylbutan-2-yl)-N3-methyl-N3-((4-methylthiazol-2-yl)methyl)isophthalamide] | < 300 nM
